From ChEMBL document CHEMBL1201862, “PubChem BioAssay data set” (2004)
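Assay format: 96-well plates, 48-hour exposure. Abbreviation: GI50, concentration required for 50% inhibition of growth.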 Activity calls are given as the source filed them. Cut-off read from the data, not from the text of the source: active = GI50 up to about 1.1 µM and inactive = higher.

Tests used:
Experiment in all cases: NCI tumour cell line growth inhibition, 48 h
[1] = tested on: A498
[2] = tested on: CAKI-1
[3] = tested on: CCRF-CEM
[4] = tested on: HCC 2998
[5] = tested on: HL-60
[6] = tested on: HOP-92
[7] = tested on: HT-29
[8] = tested on: IGROV-1
[9] = tested on: M14
[10] = tested on: Malme-3M
[11] = tested on: NCI-H226
[12] = tested on: NCI-H23
[13] = tested on: NCI-H460
[14] = tested on: NCI-H522
[15] = tested on: OVCAR-3
[16] = tested on: OVCAR-8
[17] = tested on: RPMI-8226
[18] = tested on: SK-OV-3
[19] = tested on: SNB-19
[20] = tested on: LOX IMVI

Measured: GI50

CC1(C)OC[C@H](C(=N)OCc2ccccc2)O1
inactive: [1] > 100 µM | [2] > 100 µM | [3] > 100 µM | [4] > 100 µM | [5] > 100 µM | [6] > 100 µM | [7] > 100 µM | [8] > 100 µM | [9] > 100 µM | [10] > 100 µM | [11] 19.3 µM | [12] > 100 µM | [13] > 100 µM | [14] > 100 µM | [15] > 100 µM | [16] > 100 µM | [17] > 100 µM | [18] > 100 µM | [19] > 100 µM

C=C1CC[C@@H](Br)C(C)(C)[C@]12CCC(C)(O)C(Cl)C2 (stereo partly specified)
inactive: [1] 28.9 µM | [2] 15.8 µM | [3] 24.2 µM | [4] 23.3 µM | [5] 19.9 µM | [6] 23 µM | [7] 16.8 µM | [8] 23.1 µM | [20] 19.1 µM | [10] 30.3 µM | [11] 16.7 µM | [12] 26.1 µM | [13] 17 µM | [14] 16.6 µM | [15] 20.3 µM | [16] 18.7 µM | [17] 18.8 µM | [18] 19.5 µM | [19] 19.8 µM

Nc1c(S(=O)(=O)O)cc(S(=O)(=O)O)c2ccc(/N=N/c3ccc(/C=C/c4ccc(/N=N/c5ccc6c(S(=O)(=O)O)cc(S(=O)(=O)O)c(N)c6c5O)cc4S(=O)(=O)O)c(S(=O)(=O)O)c3)c(O)c12
inactive: [1] > 100 µM | [3] > 100 µM | [4] > 100 µM | [5] 36.1 µM | [6] 35.6 µM | [7] > 100 µM | [8] 90.2 µM | [20] > 100 µM | [10] > 100 µM | [11] > 100 µM | [12] > 100 µM | [13] > 92.7 µM | [14] 54.1 µM | [15] > 100 µM | [16] > 100 µM | [17] > 100 µM | [18] 97.1 µM | [19] > 100 µM

CC(=O)OCCOCn1cc(C=O)c2ccccc21
inactive: [1] 1.95 µM | [2] > 100 µM | [3] > 100 µM | [4] > 100 µM | [5] > 100 µM | [6] > 100 µM | [7] > 100 µM | [8] > 100 µM | [20] > 100 µM | [9] > 100 µM | [10] > 100 µM | [12] > 100 µM | [13] 33.2 µM | [14] 49.3 µM | [15] > 100 µM | [16] > 100 µM | [17] > 100 µM | [18] > 100 µM | [19] > 100 µM

O=C(NN1C(=O)CSC1c1ccc(C(F)(F)F)cc1)c1ccncc1 (stereo unspecified)
inactive: [1] > 31.6 µM | [2] > 100 µM | [3] > 100 µM | [4] > 100 µM | [5] > 100 µM | [6] > 100 µM | [7] > 100 µM | [8] > 100 µM | [20] > 100 µM | [10] > 100 µM | [11] > 100 µM | [12] > 100 µM | [13] > 100 µM | [14] > 100 µM | [15] > 100 µM | [16] > 100 µM | [17] > 65.6 µM | [18] > 100 µM | [19] > 100 µM

N/C(=N\O)N/N=C/c1ncccc1O
inactive: [1] 35.7 µM | [2] 22.4 µM | [3] 6.43 µM | [4] 12.1 µM | [5] 2.41 µM | [6] 61.7 µM | [7] 13.4 µM | [8] 16.2 µM | [20] 11.2 µM | [10] 35.2 µM | [11] 18.7 µM | [12] > 49 µM | [13] 5.96 µM | [14] 15.1 µM | [15] 14.8 µM | [16] 5.04 µM | [17] 1.83 µM | [18] 35.9 µM | [19] 33.8 µM

N#Cc1c(N)c2c(c(-c3ccccc3)c1-c1ccccc1)C(=O)N(NC(=S)Nc1ccccc1)C2=O
inactive: [1] 43.3 µM | [2] > 100 µM | [3] 51.8 µM | [4] > 100 µM | [5] 37.9 µM | [6] 34.2 µM | [8] 43 µM | [20] 90.2 µM | [9] > 100 µM | [10] > 100 µM | [11] > 100 µM | [13] 61.4 µM | [14] 57.3 µM | [15] 64.4 µM | [16] 88.7 µM | [17] 16.7 µM | [19] > 100 µM

CCOC(=O)CCc1c(C)c2c(O)cc(O)cc2oc1=O
inactive: [1] > 100 µM | [2] > 100 µM | [3] 26 µM | [4] > 100 µM | [5] 42.1 µM | [6] > 100 µM | [7] > 100 µM | [8] > 100 µM | [20] > 100 µM | [10] > 100 µM | [11] > 87.9 µM | [12] > 100 µM | [13] > 100 µM | [14] > 100 µM | [15] > 100 µM | [16] > 100 µM | [17] > 100 µM | [18] > 100 µM | [19] > 84.1 µM

CCCCC(CC)C(=O)Oc1ccc(C(=O)c2ccccc2)c(O)c1 (stereo unspecified)
inactive: [1] 45.9 µM | [2] 43.5 µM | [3] 43.6 µM | [4] 52.8 µM | [5] 55.1 µM | [6] 23.2 µM | [7] 55.7 µM | [8] 55.7 µM | [20] 44.6 µM | [9] 38.5 µM | [10] 40.6 µM | [12] 35.2 µM | [13] 35 µM | [14] 31.7 µM | [15] 40.5 µM | [16] 44.9 µM | [17] 15.1 µM | [18] > 100 µM | [19] 68.9 µM

CC12CCC(=O)N1c1cnccc1N2 (stereo unspecified)
inactive: [1] > 100 µM | [2] > 100 µM | [3] > 100 µM | [4] > 100 µM | [5] > 100 µM | [6] > 100 µM | [7] > 100 µM | [8] > 100 µM | [9] > 100 µM | [10] > 100 µM | [12] > 100 µM | [13] > 100 µM | [14] > 100 µM | [15] > 100 µM | [16] > 100 µM | [17] > 100 µM | [18] > 100 µM | [19] > 100 µM
